The Kd is the constant that tells how readily two partners part at equilibrium. A higher Kd goes with lower affinity.

The target in one assay is T1, T2-TrpRS (Homo sapiens, UniProt P23381).
T1 sequence (P23381 94-471): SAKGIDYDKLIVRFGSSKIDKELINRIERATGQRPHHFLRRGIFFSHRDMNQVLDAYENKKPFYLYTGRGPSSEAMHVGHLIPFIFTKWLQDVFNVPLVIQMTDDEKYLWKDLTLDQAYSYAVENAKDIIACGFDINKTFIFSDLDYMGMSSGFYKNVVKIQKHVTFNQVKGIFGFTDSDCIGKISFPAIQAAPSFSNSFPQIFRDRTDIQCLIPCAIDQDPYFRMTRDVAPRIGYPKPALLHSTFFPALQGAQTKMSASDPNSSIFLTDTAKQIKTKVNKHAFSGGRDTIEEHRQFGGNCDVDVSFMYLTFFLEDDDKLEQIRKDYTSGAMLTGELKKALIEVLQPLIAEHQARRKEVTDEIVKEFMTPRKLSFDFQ
The assay is described as follows: isothermal titration calorimetry. The class given is binding.

Assay [1] concerns the target T2, human VE-cadherin (extracellular portion)-Fc fusion, purified (human, UniProt P33151 48-599).
T2 sequence (looked up): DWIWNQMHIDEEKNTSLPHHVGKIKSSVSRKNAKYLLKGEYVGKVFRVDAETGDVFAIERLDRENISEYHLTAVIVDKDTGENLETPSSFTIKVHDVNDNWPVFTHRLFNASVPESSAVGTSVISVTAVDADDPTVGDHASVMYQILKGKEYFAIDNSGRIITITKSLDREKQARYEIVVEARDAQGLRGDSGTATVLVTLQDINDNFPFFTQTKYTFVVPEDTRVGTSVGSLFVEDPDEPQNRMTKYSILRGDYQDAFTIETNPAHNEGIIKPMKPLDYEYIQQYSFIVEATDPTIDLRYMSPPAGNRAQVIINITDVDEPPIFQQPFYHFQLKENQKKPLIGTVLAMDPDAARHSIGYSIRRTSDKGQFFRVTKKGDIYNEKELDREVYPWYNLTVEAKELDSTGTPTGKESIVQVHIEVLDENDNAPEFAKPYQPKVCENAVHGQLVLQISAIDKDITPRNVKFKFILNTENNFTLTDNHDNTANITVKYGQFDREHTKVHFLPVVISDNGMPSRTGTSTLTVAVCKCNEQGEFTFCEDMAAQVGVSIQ
Nature of the assay: co-IP.

As to `N[C@@H](Cc1c[nH]c2ccccc12)C(=O)O` [Trp], at T2-TrpRS, binding was characterised by a dissociation constant (Kd) of 11 µM.

B1: full-length human tryptophanyl-tRNA synthetase (FL-TrpRS) (enzyme, UniProt P23381 1-471, looked up)
chain: MPNSEPASLLELFNSIATQGELVRSLKAGNASKDEIDSAVKMLVSLKMSYKAAAGEDYKADCPPGNPAPTSNHGPDATEAEEDFVDPWTVQTSSAKGIDYDKLIVRFGSSKIDKELINRIERATGQRPHHFLRRGIFFSHRDMNQVLDAYENKKPFYLYTGRGPSSEAMHVGHLIPFIFTKWLQDVFNVPLVIQMTDDEKYLWKDLTLDQAYSYAVENAKDIIACGFDINKTFIFSDLDYMGMSSGFYKNVVKIQKHVTFNQVKGIFGFTDSDCIGKISFPAIQAAPSFSNSFPQIFRDRTDIQCLIPCAIDQDPYFRMTRDVAPRIGYPKPALLHSTFFPALQGAQTKMSASDPNSSIFLTDTAKQIKTKVNKHAFSGGRDTIEEHRQFGGNCDVDVSFMYLTFFLEDDDKLEQIRKDYTSGAMLTGELKKALIEVLQPLIAEHQARRKEVTDEIVKEFMTPRKLSFDFQ
With B1, in assay [1], the “amount bound relative to T2-TrpRS” value is around 5%.

(Values after paper PMC3042952 (Nature structural & molecular biology, 2009).)
